Measured values as given in US5972998A, “Triptolide derivatives useful in the treatment of autoimmune diseases” (priority 1998, dated 1999).
In brackets after ≈: the same amount, converted by molar mass. Where two headings read alike, the source gives them in different places.

Columns and labels:
[1] = administered in conjunction with another immunosuppressive agent; WO 94/26265; cited from earlier work
[2] = tested on: Jurkat E6-1 cell line (ATCC), a human leukemic T cell line or lymphocytes prepared from fresh human blood; experiment: Cell viability (mitochondrial enzyme assay, MTT); format: cell-based; details: after 16-24 hours incubation
Procedure: (§1) Jurkat E6-1 cell line (ATCC), a human leukemic T cell line or lymphocytes prepared from fresh human blood, are grown in complete culture medium consisting of RPMI-1640 (Mediatech) supplemented with 10% v/v fetal bovine serum (HyClone, Logen, Vt.), penicillin (100 units/mL), streptomycin ([…]), and 2 mM L-glutamine (GIBCO, Grand Island, N.Y.). The cells are grown to a concentration of between 1.2 to 1.8×10^6 cells/mL before use. The cells are then centrifuged at low speed and resuspended to a concentration of 1.25×10^6 cells/mL in fresh medium.
(§2) The compounds to be tested are dissolved in DMSO, and water is added to make a 50% DMSO/water solution. The compounds are then diluted in sterile water such that the DMSO concentrations are less then 0.05%. The cells at a concentration of 1.25×10^6 cells/mL are stimulated with phytohemagglutinin 10 μg/mL (PHA) and 10^-8 M phorbol ester (12-O-tetradecanoylphorbol 13-acetate: TPA), (Sigma, St. Louis, Mo.). The compounds are then added and the cells are plated in flat-bottom tissue culture plates (Falcon, Lincoln Park, N.J.), with 250,000 cells/well. Plates are then incubated at 37° C. under an atmosphere of 5% CO2.
(§3) After incubation (16-24 hours), the cells are assayed for IL-2 production and cell viability (MTT). IL-2 production is assayed utilizing a solid phase ELISA immunoassay, sold in kit form by R&D Systems, Inc., Minneapolis, Minn.
Cell viability is measured by the use of a mitochondrial enzyme assay. After removal of the supernatant for the IL-2 assay, Cell Titer 96 (a commercial solution of MTT available from Promega, Madison, Wis.) is added to the plates and incubated for 4 hours at 37° C. A solubilization solution is then added and incubated overnight. The plates are then read on an ELISA plate reader at a wavelength of 570 nm. Table II presents the results for the lnterleukin-2 assay, the cell viability assay and the ratio of cell viability/IL-2 inhibition.

IL-2 = experiment: Interleukin-2 assay (IL-2 production, ELISA, PHA/TPA-stimulated cells); format: cell-based; details: Jurkat E6-1 cells or human blood lymphocytes, PHA 10 μg/mL + TPA 10^-8 M, 16-24 hours
Procedure: as §1, §2, §3

[3] = tested on: adjuvant-induced arthritis; experiment: Anti-inflammatory activity in the rat model of adjuvant-induced arthritis; format: in vivo, rat (male Wistar-Lewis); details: 12 consecutive days, day 18
Procedure: Anti-inflammatory Activity in the Rat Model of Adjuvant-induced Arthritis
(§4) Following generally the procedure of Pearson and Wood, Arth. Rheum., 2, 44 (1959), the anti-inflammatory activity of the following compounds was determined in a rat model of adjuvant-induced arthritis. Male Wistar-Lewisrats (Mollegaard, Breeding Centre Ltd, BIBY, DK 4623 LI, SKENSVED, P.P. Box 28, DK) with a body weight between 160 g and 200 g are used. Freund's adjuvant (0.1 mL, 6 mg Mycobacterium smegmatis suspension per mL in heavy white paraffin oil, Merck/Darmstadt) was injected into the base of the tail. Between day 10 and day 14 of the test, immunopathological processes lead to chronic inflammation, especially in the form of arthritic and periarthritic symptoms in all parts of the body. The animals received standardized food Altromin-R (Altrogge, Lage) and had free access to water. The compounds were administered i.p. (suspension in a carboxymethyl cellulose solution in an injection volume of 0.5 mL/100 g body weight) on 12 consecutive days, starting with the day of the adjuvant injection. On day 1 and day 18 of the study, the volume to of both hind paws and the body weight were recorded, and in addition on day 18 the arthritis index. Cyclosporin A and Prednisolone were used as standard compounds. In addition, table IV presents the percent change in body weight (weight gain) between day 1 and day 21 of the above test.

[4] = format: in vivo, rat (male Wistar-Lewis); details: weight gain between day 1 and day 21
Procedure: as §4

lymphocyte = details: Yang, et al., 1992 and 1994; cited from earlier work
skin allograft rejection = details: Yang, et al., 1992 and 1994; cited from earlier work

Question: For `C[C@@H](CO)[C@]12O[C@H]1[C@@H]1O[C@]13[C@]1(O[C@H]1C[C@H]1C4=C(CC[C@@]13C)C(=O)OC4)[C@@H]2O` [16-hydroxytriptolide, 16-Hydroxytriptolide], which “immunosuppressive activity relative to the sum of the effects of either agent alone” value [1] is on record?
Answer: increase in immunosuppressive activity relative to the sum of the effects

Question: Which “IC50 /MTT” value [2] does the source give for `CC(C)[C@]1(O)C=C[C@@]2(O)[C@@]3(C)CCC4=C(COC4=O)C3CC[C@@]2(O)[C@@H]1O` (stereo partly drawn) [Example 2, [5aR-(5aα,6α,7β,9aα,9bα)]-3b,4,5,5a,6,7,9a,9b,10,11-decahydro-5a,6,7,9a-tetrahydroxy-9b-methyl-7-(1-methylethyl)-phenanthro[1,2-c]furan-1(3H)-one] here?
Answer: 90 ng/mL (≈ 0.247 µM)

Question: And the “IC50 /IL-2” value (IL-2)?
Answer: 14 ng/mL

Question: What about the “% Inhibition” value ([3]; 2 mg/kg/day i.p.) of the same compound?
Answer: 83%

Question: And the “% Inhibition” value ([3]; 4 mg/kg/day i.p.)?
Answer: 72%

Question: And the “% Change in Body Weight” value ([4]; 2 mg/kg/day i.p.)?
Answer: 18.3%

Question: What about the “% Change in Body Weight” value ([4]; 4 mg/kg/day i.p.) of the same compound?
Answer: 24.1%

Question: With `CC(C)[C@]12O[C@H]1[C@@H]1O[C@]13[C@]1(O[C@H]1C[C@H]1C4=C(CC[C@@]13C)C(=O)OC4)[C@@H]2O` [Triptolide, triptolide] as the compound, how does the suppress lymphocyte proliferation (lymphocyte) read?
Answer: suppress lymphocyte proliferation

Question: What about the “IC50 /MTT” value [2] of the same compound?
Answer: 5 ng/mL (≈ 0.0139 µM)

Question: What about the “suppress skin allograft rejection” value (skin allograft rejection) of the same compound?
Answer: suppress lymphocyte proliferation and skin allograft rejection

Question: With Cyclosporin A [reference compound] as the compound, how does the “% Inhibition” value ([3]; 10 mg/kg/day i.p.) read?
Answer: 100%

Question: And the “% Change in Body Weight” value ([4]; 10 mg/kg/day i.p.)?
Answer: 27.2%

Question: With “[5R-(5α,5aβ,6β,7α,9aβ,9bβ)]-3b,4,5,5a,6,7,9a,10,11-decahydro-5a,6,9a-trihydroxy-9b-methyl-7-(1-methylethyl)-5,7-epoxyphenanthro[1,2-c]furan-1(3H)-one [Example 3]” as the compound, how does the “IC50 /MTT” value [2] read?
Answer: > 1,000 ng/mL

Question: What about the “IC50 /IL-2” value (IL-2) of the same compound?
Answer: 500 ng/mL

Question: Which results are given for “[5aS-(5aα,5bα,8β,9α,9aR*,10aβ)]-4,5a,5b,8,9,10a,11,11a-octahydro-5b,8,9-trihydroxy-5a-methyl-8-(1-methylethyl)-1H-oxireno[8a,9]phenanthro[1,2-c]furan-3(5)-one [Example 1]”?
Answer: IC50 /MTT [2]: > 1,000 ng/mL; IC50 /IL-2 (IL-2): 1,000 ng/mL
